Converted amounts (≈) assume the structure as drawn.
Tests used:
[1] = target: BioA (7,8-diaminopelargonic acid synthase) (Escherichia coli, UniProt P12995); assay: recombinant BioA activity, bioA auxotroph feeding assay at […]; assay type: biochemical
E. coli MG1655 = assay: microbe, parasite or virus in culture; details: Escherichia coli, MG1655, 16 h, read-out: MIC (μg/ml) ^a / −bio

Chain of BioA (7,8-diaminopelargonic acid synthase) (P12995 whole entry): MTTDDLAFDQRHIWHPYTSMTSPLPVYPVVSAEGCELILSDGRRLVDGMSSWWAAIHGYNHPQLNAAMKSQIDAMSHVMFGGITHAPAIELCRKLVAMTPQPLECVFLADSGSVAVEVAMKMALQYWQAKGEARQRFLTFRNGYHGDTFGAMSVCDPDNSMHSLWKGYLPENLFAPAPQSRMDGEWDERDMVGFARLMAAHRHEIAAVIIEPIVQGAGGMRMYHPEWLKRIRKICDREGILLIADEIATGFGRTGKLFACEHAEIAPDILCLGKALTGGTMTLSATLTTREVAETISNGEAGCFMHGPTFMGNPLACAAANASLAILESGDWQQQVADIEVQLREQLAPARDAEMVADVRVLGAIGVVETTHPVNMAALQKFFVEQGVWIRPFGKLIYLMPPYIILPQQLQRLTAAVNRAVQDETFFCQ

NNC(=O)CSc1ccc([N+](=O)[O-])cc1 [compound 6]
% Inhibition ^b / 1 μM / 100 [1]: 66

NNC(=O)CSc1cccc([N+](=O)[O-])c1 [compound 5]
% Inhibition ^b / 10 μM / 100 [1]: 84

CCCC(=O)NN [compound 21]
MIC (E. coli MG1655): > 256 µg/mL

CC(=O)NN [compound 23]
MIC (E. coli MG1655): 128 µg/mL (≈ 1730 µM)
